In ChEMBL document CHEMBL6153094, “Rationally designed highly amphipathic antimicrobial peptides demonstrating superior bacterial selectivity relative to the corresponding α-helix peptide” (Eur J Med Chem, 2025):
Where a SMILES comes first, the peptide text is derived from it. Bridges are numbered along the chain shown (N, C = ends). [ ]: non-standard residue; d: D form. The star is where a group is joined. X1 = CC[C@H](C)CCCCC(=O)*; Dab = NCC[C@H](N)C(=O)O

What was measured:
[1] = Toxicity in male Balb/c mouse assessed as lung bubble contraction at 22.48 mg/kg, ip administered for 7 days by H and E staining based analysis; type: organism-based; conditions: in vivo, 168 h, time 7 day
[2] = Toxicity in male Balb/c mouse assessed as lethal dose administered intraperitoneally for 7 days; conditions: in vivo, route ip, time 7 day
[3] = Toxicity in male Balb/c mouse assessed as edema in liver at 22.48 mg/kg, ip administered for 7 days by H and E staining based analysis; type: organism-based; conditions: in vivo, 168 h, time 7 day
[4] = Acute toxicity in male Balb/c mouse assessed as animal death at 30 mg/kg, ip measured within 30 mins; type: organism-based; conditions: in vivo, 0.5 h
[5] = Toxicity in male Balb/c mouse assessed as balloon-like degeneration in liver at 22.48 mg/kg, ip administered for 7 days by H and E staining based analysis; type: organism-based; conditions: in vivo, 168 h, time 7 day
[6] = Toxicity in male Balb/c mouse assessed as alveolar septum thickening at 22.48 mg/kg, ip administered for 7 days by H and E staining based analysis; type: organism-based; conditions: in vivo, 168 h, time 7 day
[7] = Toxicity in male Balb/c mouse assessed as inflammatory cell infiltration in lungs at 22.48 mg/kg, ip administered for 7 days by H and E staining based analysis; type: organism-based; conditions: in vivo, 168 h, time 7 day
[8] = Toxicity in male Balb/c mouse assessed as hemorrhage in liver at 22.48 mg/kg, ip administered for 7 days by H and E staining based analysis; type: organism-based; conditions: in vivo, 168 h, time 7 day
Escherichia coli = experiment: Antimicrobial activity against Escherichia coli ATCC 25922 assessed as inhibition of visible bacterial growth incubated for 18 hrs by broth microdilution method; type: functional
Pseudomonas aeruginosa [9] = experiment: Antibacterial activity against Pseudomonas aeruginosa ATCC 27853 assessed as fold change in MIC incubated for 18 hrs in presence of NaCl by Mueller-Hinton broth based assay; type: functional
Pseudomonas aeruginosa [10] = experiment: Resistance fold, ratio of MIC for Pseudomonas aeruginosa ATCC 27853 measured after 20 passages in presence of gentamicin to MIC for Pseudomonas aeruginosa ATCC 27853 measured immediately in presence of gentamicin; type: functional
Enterococcus faecalis = experiment: Antimicrobial activity against Enterococcus faecalis ATCC 29212 assessed as inhibition of visible bacterial growth incubated for 18 hrs by broth-dilution method; type: functional
Pseudomonas aeruginosa [11] = experiment: Additive antimicrobial activity against gentamicin-resistant Pseudomonas aeruginosa ATCC 27853 assessed as fractional inhibitory concentration index incubated for 18 hrs in presence of gentamicin by checkerboard microdilution method; type: functional
Pseudomonas aeruginosa [12] = experiment: Antibacterial activity against Pseudomonas aeruginosa ATCC 27853 assessed as fold change in MIC incubated for 18 hrs in presence of FeCl3 by Mueller-Hinton broth based assay; type: functional
Staphylococcus aureus [13] = experiment: Antimicrobial activity against methicillin-drug resistant Staphylococcus aureus ATCC 33591 assessed as concentration required to eliminate 90% bacteria incubated for 18 hrs by broth-microdilution method; type: functional
Pseudomonas aeruginosa [14] = experiment: Antimicrobial activity against Pseudomonas aeruginosa ATCC 27853 assessed as inhibition of visible bacterial growth incubated for 18 hrs by broth microdilution method; type: functional
Bacillus subtilis = experiment: Antimicrobial activity against Bacillus subtilis ATCC 23857 assessed as inhibition of visible bacterial growth incubated for 18 hrs by broth microdilution method; type: functional
[15] = system: Staphylococcus epidermidis; experiment: Antimicrobial activity against Staphylococcus epidermidis ATCC 12228 assessed as inhibition of visible bacterial growth incubated for 18 hrs by broth-dilution method; type: functional
Pseudomonas aeruginosa [16] = experiment: Antibacterial activity against Pseudomonas aeruginosa ATCC 27853 assessed as fold change in MIC incubated for 18 hrs in presence of ZnCl2 by Mueller-Hinton broth based assay; type: functional
Staphylococcus aureus [17] = experiment: Antibacterial activity against Staphylococcus aureus ATCC 25923 assessed as fold change in MIC incubated for 18 hrs in presence of MgCl2 by Mueller-Hinton broth based assay; type: functional
Staphylococcus aureus [18] = experiment: Antibacterial activity against Staphylococcus aureus ATCC 25923 assessed as fold change in MIC incubated for 18 hrs in presence of ZnCl2 by Mueller-Hinton broth based assay; type: functional
Staphylococcus aureus [19] = experiment: Antibacterial activity against Staphylococcus aureus ATCC 25923 assessed as fold change in MIC incubated for 18 hrs in presence of FeCl3 by Mueller-Hinton broth based assay; type: functional
Acinetobacter baumannii = experiment: Antimicrobial activity against Acinetobacter baumannii ATCC 19606 assessed as inhibition of visible bacterial growth incubated for 18 hrs by broth microdilution method; type: functional
Pseudomonas aeruginosa [20] = experiment: Resistance fold, ratio of MIC for Pseudomonas aeruginosa ATCC 27853 measured after 20 passages to MIC for Pseudomonas aeruginosa ATCC 27853 measured immediately; type: functional
Staphylococcus aureus [21] = experiment: Antibacterial activity against Staphylococcus aureus ATCC 25923 assessed as fold change in MIC incubated for 18 hrs in presence of KCl by Mueller-Hinton broth based assay; type: functional
Pseudomonas aeruginosa [22] = experiment: Antibiofilm activity in Pseudomonas aeruginosa ATCC 27853 assessed as inhibition of biofilm formation at 1 times of MIC incubated for 24 hrs by crystal violet staining based analysis relative to control; type: functional
Staphylococcus aureus [23] = experiment: Synergistic antimicrobial activity against gentamicin-resistant Staphylococcus aureus ATCC 25923 assessed as fractional inhibitory concentration index incubated for 18 hrs in presence of gentamicin by checkerboard microdilution method; type: functional
Pseudomonas aeruginosa [24] = experiment: Antibacterial activity against Pseudomonas aeruginosa ATCC 27853 assessed as fold change in MIC incubated for 18 hrs in presence of KCl by Mueller-Hinton broth based assay; type: functional
Klebsiella pneumoniae = experiment: Antimicrobial activity against Klebsiella pneumoniae ATCC 700603 assessed as inhibition of visible bacterial growth incubated for 18 hrs by broth microdilution method; type: functional
Staphylococcus aureus [25] = experiment: Antimicrobial activity against Staphylococcus aureus ATCC 25923 assessed as inhibition of visible bacterial growth incubated for 18 hrs by broth-dilution method; type: functional
Staphylococcus aureus [26] = experiment: Antibiofilm activity in Staphylococcus aureus ATCC 25923 assessed as inhibition of biofilm formation at 4 times of MIC incubated for 24 hrs by crystal violet staining based analysis relative to control; type: functional
Staphylococcus aureus [27] = experiment: Antibiofilm activity in Staphylococcus aureus ATCC 25923 assessed as inhibition of biofilm formation at 1 times of MIC incubated for 24 hrs by crystal violet staining based analysis relative to control; type: functional
Staphylococcus aureus [28] = experiment: Antibacterial activity against Staphylococcus aureus ATCC 25923 assessed as fold change in MIC incubated for 18 hrs in presence of NaCl by Mueller-Hinton broth based assay; type: functional
Staphylococcus aureus [29] = experiment: Antibiofilm activity in Staphylococcus aureus ATCC 25923 assessed as inhibition of biofilm formation at 1/2 times of MIC incubated for 24 hrs by crystal violet staining based analysis relative to control; type: functional
Staphylococcus aureus [30] = experiment: Antibiofilm activity in Staphylococcus aureus ATCC 25923 assessed as inhibition of biofilm formation at 2 times of MIC incubated for 24 hrs by crystal violet staining based analysis relative to control; type: functional
Pseudomonas aeruginosa [31] = experiment: Antibacterial activity against Pseudomonas aeruginosa ATCC 27853 assessed as fold change in MIC incubated for 18 hrs in presence of MgCl2 by Mueller-Hinton broth based assay; type: functional
Staphylococcus aureus [32] = experiment: Resistance fold, ratio of MIC for Staphylococcus aureus ATCC 25923 measured after 20 passages in presence of gentamicin to MIC for Staphylococcus aureus ATCC 25923 measured immediately in presence of gentamicin; type: functional
Staphylococcus aureus [33] = experiment: Resistance fold, ratio of MIC for Staphylococcus aureus ATCC 25923 measured after 20 passages to MIC for Staphylococcus aureus ATCC 25923 measured immediately; type: functional

For `CC(C)CCCCC(=O)N[C@@H](CCN)C(=O)N[C@H](C(=O)N[C@@H](CCN)C(=O)N[C@H]1CCNC(=O)[C@H]([C@@H](C)O)NC(=O)[C@H](CCN)NC(=O)[C@H](CCN)NC(=O)[C@H](CC(C)C)NC(=O)[C@@H](Cc2ccccc2)NC(=O)[C@H](CCN)NC1=O)[C@@H](C)O.CC[C@H](C)CCCCC(=O)N[C@@H](CCN)C(=O)N[C@H](C(=O)N[C@@H](CCN)C(=O)N[C@H]1CCNC(=O)[C@H]([C@@H](C)O)NC(=O)[C@H](CCN)NC(=O)[C@H](CCN)NC(=O)[C@H](CC(C)C)NC(=O)[C@@H](Cc2ccccc2)NC(=O)[C@H](CCN)NC1=O)[C@@H](C)O` (X1-[Dab]T[Dab][Dab][Dab][dF]L[Dab][Dab]T; lactam 4-C) [listing 1 of 2 here], which Activity [1] is on record?
Its Activity is “Toxic”.

What about the LD50 at 168 h [2] of the same molecule?
The LD50 at 168 h was 22.5 mg/kg.

What about the Activity [3] of the same molecule?
Its Activity is “Toxic”.

And the Activity [4]?
Its Activity is “Toxic”.

What about the Activity [5] of the same molecule?
Its Activity is “Toxic”.

And the Activity [6]?
The Activity was “Toxic”.

And the Activity [7]?
The Activity was “Toxic”.

And the Activity [8]?
The Activity was “Toxic”.

Which results are given for `CC(C)CCCCC(=O)N[C@@H](CCN)C(=O)N[C@H](C(=O)N[C@@H](CCN)C(=O)N[C@H]1CCNC(=O)[C@H]([C@@H](C)O)NC(=O)[C@H](CCN)NC(=O)[C@H](CCN)NC(=O)[C@H](CC(C)C)NC(=O)[C@@H](Cc2ccccc2)NC(=O)[C@H](CCN)NC1=O)[C@@H](C)O.CC[C@H](C)CCCCC(=O)N[C@@H](CCN)C(=O)N[C@H](C(=O)N[C@@H](CCN)C(=O)N[C@H]1CCNC(=O)[C@H]([C@@H](C)O)NC(=O)[C@H](CCN)NC(=O)[C@H](CCN)NC(=O)[C@H](CC(C)C)NC(=O)[C@@H](Cc2ccccc2)NC(=O)[C@H](CCN)NC1=O)[C@@H](C)O` (X1-[Dab]T[Dab][Dab][Dab][dF]L[Dab][Dab]T; lactam 4-C) [listing 2 of 2 here]?
MIC (Escherichia coli): < 1 µM; fold change (FC) (Pseudomonas aeruginosa [9]): 2; fold change (FC) (Pseudomonas aeruginosa [10]): 8; MIC (Enterococcus faecalis): 128 µM; fractional inhibitory concentration index (FICI) (Pseudomonas aeruginosa [11]): 0.563; fold change (FC) (Pseudomonas aeruginosa [12]): <=2; EC90 (Staphylococcus aureus [13]): 11.1 µM; MIC (Pseudomonas aeruginosa [14]): < 1 µM; MIC (Bacillus subtilis): 8 µM; MIC [15]: 8 µM; fold change (FC) (Pseudomonas aeruginosa [16]): <=2; fold change (FC) (Staphylococcus aureus [17]): <=2; fold change (FC) (Staphylococcus aureus [18]): <=2; fold change (FC) (Staphylococcus aureus [19]): <=2; MIC (Acinetobacter baumannii): < 1 µM; fold change (FC) (Pseudomonas aeruginosa [20]): 8; fold change (FC) (Staphylococcus aureus [21]): <=2; inhibition (INH) (Pseudomonas aeruginosa [22]): >90%; fractional inhibitory concentration index (FICI) (Staphylococcus aureus [23]): 0.375; fold change (FC) (Pseudomonas aeruginosa [24]): <=2; MIC (Klebsiella pneumoniae): < 1 µM; MIC (Staphylococcus aureus [25]): 16 µM; inhibition (INH) (Staphylococcus aureus [26]): ~80%; inhibition (INH) (Staphylococcus aureus [27]): 75%; fold change (FC) (Staphylococcus aureus [28]): 8; inhibition (INH) (Staphylococcus aureus [29]): 55%; inhibition (INH) (Staphylococcus aureus [30]): ~80%; fold change (FC) (Pseudomonas aeruginosa [31]): <=2; fold change (FC) (Staphylococcus aureus [32]): 8; fold change (FC) (Staphylococcus aureus [33]): 4
